Data on two compounds can be found in US8710241B2, “Crystalline form of zofenopril calcium” (Generics [UK]Limited, priority 2007, dated 2014).

Structures can show the parent of a compound that is named as a salt.

Series [1] in a line: Water vapour sorption isotherm (Surface Measurement Systems DVS-HT). As to conditions: 25° C.; for Maximum water uptake: high/elevated relative humidity levels (greater than 90% rh), calcium salt. In kind it is physicochemical. As for the experimental part: Equilibrium water uptake levels of less than 0.5 wt % were observed up to a relative humidity level of 70% rh, which may be considered the uppermost limit of ambient humidity conditions.
Determination of the water vapour sorption isotherms of zofenopril calcium crystalline form D according to the invention and of the prior art form B were performed by Surface Measurement Systems DVS-HT. The resultant isotherms, as shown in FIGS. 4 and 5 respectively, were obtained under the following parameters: • Temperature=25° C. • Humidity profile: Desorption 1: 50-0% relative humidity (rh) in steps of 10% • Adsorption: 0-90% rh in steps of 10%, 95% rh • Desorption 2: 95% rh, 90-50% rh in steps of 10% • Equilibration time per rh stage: 240 min (0% rh), 180 min (all other rh levels)

Series [2] in a line: DSC and XRPD experiments on polymorphic transition. Particulars: up to temperatures of ca. 140° C. It counts as physicochemical. As for the experimental part:
The X-ray powder diffraction data was obtained by methods known in the art using a Bruker D8 Advance Powder Diffractometer with scintillation detector under the following parameters: • Reflectance mode • Cu Kα radiation (1.5406 Å) • Scanning range: 2-30 °2θ • Step size: 0.02 °2θ • Time per step: 6s

Series [3] in a line: Conditioning (equilibration) of dried samples, characterised by XRPD. In kind it is physicochemical. Particulars: conditioned at 30° C. for 30 minutes under nitrogen after drying. On the procedure:
Approximately 100 mg of zofenopril calcium were dried at 50° C. for 120 minutes under a nitrogen flow atmosphere (flow rate: 500 ml/min). The sample was finally conditioned at 30° C. for 30 minutes under the nitrogen gas atmosphere.
The drying processes as detailed in the above examples yield the novel anhydrous form D of zofenopril calcium according to the invention. […] Thus, the compounds prepared by examples 1-5 were determined to be the same crystalline form and were distinct from the prior art forms A, B, and C. Further, the samples were then ‘conditioned’, i.e. they were allowed to equilibrate.

For series [4] the following is noted: TGA, 25-105° C.
Description: The compounds obtained by the processes according to the invention as described above and in the following examples were also subjected to thermogravimetric analysis (TGA). […] The TGA analysis data was obtained using a Mettler-Toledo TGA851e apparatus under the following parameters: • Temperature profile: 25-300° C.@5° C./min • Nitrogen purge gas: 50 ml/min • Aluminium pan: 40 μl, pierced prior to scan

For the compound `C[C@H](CSC(=O)c1ccccc1)C(=O)N1C[C@@H](Sc2ccccc2)C[C@H]1C(=O)O` [form B, (4S)-1-[(2S)-3-(benzoylthio)-2-methylpropionyl]-4-(phenylthio)-L-proline calcium salt, reference compound], the Maximum water uptake entry in series [1] is “approximately 2.5 wt %”.

Turning to `C[C@H](CSC(=O)c1ccccc1)C(=O)N1C[C@@H](Sc2ccccc2)C[C@H]1C(=O)O` [form D, (4S)-1-[(2S)-3-(benzoylthio)-2-methylpropionyl]-4-(phenylthio)-L-proline calcium salt], in series [1], the Maximum water uptake result is given as “ca. 1 wt %”. In series [1] (up to a relative humidity level of 70% rh), the Equilibrium water uptake result is reported as “less than 0.5 wt %”. Besides, in series [1] (water vapour sorption isotherm, 0-95% rh), the “Re-conversion to hydrate form C upon exposure to water vapour” value is “does not easily re-convert to hydrate form C”. The Polymorphic transition entry in series [2] was “no polymorphic transition”. Moreover, the “Conversion upon cooling to hydrated form C or another crystalline form” value in series [3] was “no conversion”. The “Weight loss, equivalent to loss on drying (LOD)” value in series [4] was “less than 0.5 wt %”.
